The text below walks through data of a melting point compilation (Tetko et al.; mined from patent text by program, amines drawn as free bases though some values may be those of a salt).

In the case of `CC1(C)CCC(C)(C)c2cc(-c3cc(-c4ccc(C(N)=O)cc4)ccc3-c3ccccc3)ccc21`, the melting point came out at 220 °C.
Consider `OCc1cc(Cl)c(Cl)c(Cl)n1`, for which the melting point lay within 82 to 83 °C.
With `CC1(C)OC(=O)Nc2ccc(-c3ccccc3CC#N)cc21`, the melting point fell in the range of 176 to 179 °C.
`Cc1cccc(NC(=O)CN2CCN(c3ccccc3)CC2)c1` registered a melting point of 120 to 121 °C.
As to `CN1C(=O)C(C)(C)N=C(c2ccccc2Cl)c2c1ccc(N)c2Cl`, the melting point is 195 to 196 °C.
Turning to `COCCOc1cccc(-n2cc(-c3ccc(O)cc3)c3c(N)ncnc32)c1`, the melting point is 103 to 112 °C.
The molecule `CCOC(=O)CNc1ncccc1NC(=O)c1ccccc1Cl` came in with a melting point of 111 to 112 °C.
The same measure for `COc1ccc(C#Cc2ccc(OC3CN4CCC3CC4)cc2)cc1` (stereo not given): 112 to 115 °C.
On to `Cc1oc(-c2ccco2)nc1COc1ccc(CON=C(CCCCCCC(=O)O)c2ccccc2)cc1`, for which the melting point was 75 to 77 °C.
The same measure for `c1ccc2c(c1)CNC1CC2c2ccccc21` (stereo not given): 115 to 117 °C; for `Cc1cc(I)ccc1Nc1c(-c2nnc(S)o2)ccc(F)c1F`: 232 to 233 °C.
Consider `NC(=O)c1c(C(=O)O)cnn1-c1ccc(Cl)c(Cl)c1`, for which the melting point was in the range of 249 to 250 °C.
`COc1cc(Nc2c(C#N)cnc3cc(-c4ccc(CN5CCC(CC(=O)O)CC5)cc4)ccc23)c(Cl)cc1Cl` had a melting point of 239 to 240 °C.
As for `COc1cc(OC)cc(-c2ncoc2-c2ccc(OC(F)(F)F)c(N)c2)c1`, the melting point fell in the range of 119 to 120 °C.
In the case of `COC(=O)CCC(Oc1cccc2c1cc(C)n2Cc1ccccc1)C(=O)OC` (stereo not given), the melting point lay in the range of 139 to 141 °C.
The molecule `COc1cccc(CC(=O)Nc2cc(Cl)c(Cl)cc2[N+](=O)[O-])c1` gave a melting point of 122 to 124 °C.
The value for `CCC[C@@H]1COC(=O)N1c1nc(-c2ccc(Br)cc2)cs1` was 114 to 116 °C; that for `Oc1ccc(-c2nc(Br)c[nH]2)cc1` was 210 to 212 °C.
The value for `CCc1cc(Br)cc2nc(C(=O)OC)c(C(=O)OC)c(O)c12` was 115 to 117 °C; that for `Cc1cccc(Nc2ccccc2C(=O)NO)c1C` was 124 to 125 °C; that for `O=C(Cl)C(OCc1ccc(-c2ccc(Cl)cc2)cc1)(C(F)(F)F)C(F)(F)F` was 30 to 35 °C.
Molecule `CCOC(=O)COc1ccc(C2=NNC(=O)NC2)cc1` gave a melting point of 181 to 183 °C.
Regarding `CC(C)n1nc(-c2sc(NC(=O)C3CC3)nc2-c2ccccc2)ccc1=O`, the melting point is 226 to 227 °C.
Molecule `COC(=O)c1ccc(NC(=O)c2cc(C(C)C)c(C(C)C)o2)cn1` came in with a melting point of 186 to 188 °C.
`O=C(Nc1ccc(-n2nc(C(F)(F)F)cc2C(F)(F)F)cc1)c1ccc(F)c(F)c1F`: the melting point lay within 122 to 124 °C.
The value for `CC(NC(=O)Nc1ccc(Br)cn1)c1ncccc1F` (stereo not given) was 151 to 154 °C.
The value for `COc1ccc(CN2C(=O)CN(Cc3ccc4c(OC)ccnc4c3)S2(=O)=O)c(OC)c1` was 128 to 132 °C; that for `CC(=O)Nc1ccc(-c2cc(C(=O)c3ccc(C)cc3)sc2N2CCOCC2)cc1` was 168 °C; that for `CN1C(=O)CCCC1(O)C=Cc1ccccc1` (stereo not given) was 108 to 112 °C.
Take `Oc1cn(-c2c(Cl)cc(C(F)(F)F)cc2Cl)nc1C(F)(F)F`: the melting point lay in the range of 186 to 188 °C.
The value for `O=C(O)Cn1c(=O)c(-c2ccccc2Cl)cc2cnc(NC3C4CN(Cc5ccccc5)CC43)nc21` (stereo not given) was 159 to 163 °C; that for `CCC1Cc2cc(OCC(=O)O)c(Cl)c(Cl)c2C1O` (stereo not given) was 121 to 122 °C.
The value for `CCOC(=O)c1oc(-c2ccc(Cl)cc2)nc1C` was 80 to 81 °C; that for `CN1Cc2cccnc2C(N2CCN(C(=O)CC3CCN(C(=O)OC(C)(C)C)CC3)CC2)c2ccc(Cl)cc21` (stereo not given) was 86 to 98 °C; that for `CCc1ccccc1NS(=O)(=O)c1cc(S(=O)(=O)Nc2ccccc2CC)c2cc(O)ccc2c1` was 127 to 129 °C.
The value for `CCc1cc(OCc2ccc(-c3ccccc3-c3nnn(C(c4ccccc4)(c4ccccc4)c4ccccc4)n3)cc2)c2c(n1)CCCCC2` was 147 to 148 °C; that for `O=C1CCC(=O)N1SCc1ccc([N+](=O)[O-])cc1` was 146 to 148 °C; that for `Cc1cccc(C(=O)Nc2nc(=O)n(C3OC(C)C(O)C3O)cc2F)c1` (stereo not given) was 146 to 148 °C.
Regarding `CN(c1ccc(O)cc1)c1nc2cc(Cl)ccc2s1`, the melting point fell in the range of 238 to 240 °C.
`CCOC(=O)C1=C(C)NC(c2csc(NC(C)=O)n2)=NC1c1ccc(F)cc1Cl` (stereo not given) returned a melting point of 220 to 223 °C.
`COCCNCC(O)c1ccccc1` (stereo not given) gave a melting point of 77 to 80 °C.
The same measure for `CCCCCN1C(=O)C(=O)c2cc(SCCCc3ccc(C(=O)O)cc3)ccc21`: 145 to 146 °C; for `CC(COc1ccc(CC2SC(=O)NC2=O)cc1)NCC(O)c1cccc(C(F)(F)F)c1` (stereo not given): 100 to 105 °C.
The same measure for `C=CC(=O)N(c1cc(-n2ncc(=O)n(C)c2=O)c(F)cc1C#N)S(=O)(=O)CC`: 118 °C; for `Cc1ccc(CN2Cc3cncn3C(c3ccc(C#N)cc3)C2=O)cc1` (stereo not given): 168 to 170 °C.
The same measure for `CC(C)[C@H](NC(=O)CS)C(=O)N1CCC[C@H]1C(=O)O`: 162 to 165 °C; for `CCc1cc(=O)c2cc(C(C)CO)ccc2o1` (stereo not given): 59.5 to 60.5 °C; for `CCOC(=O)c1cnc(Nc2ccccc2)[nH]c1=O`: 267 to 269 °C.
On to `CNC(=S)NS(=O)(=O)c1cc(CCNC(=O)c2cnc3ccccc3c2)ccc1OC`, for which the melting point came out at 85 °C.
The same measure for `CSCCCC1(C(=S)N[C@@H](Cc2ccc(NC(=O)c3c(Cl)cccc3Cl)cc2)C(=O)O)CCC1`: 186 to 188 °C.
The same measure for `C=Cc1cn([C@@H]2O[C@H](C)[C@@H](OC(C)=O)[C@H]2OC(C)=O)c(=O)nc1N`: 198 to 199 °C.
`COc1cccc(C(=O)N2CCN(CC3(C)Cc4c(C)c(N)c(C)c(C)c4O3)CC2)c1` (stereo not given) yielded a melting point of 95 to 98 °C.
The molecule `CS(=O)(=O)c1ccc(-c2cc(CCCC(=O)O)nn2-c2ccc(C(F)(F)F)cc2)cc1` displayed a melting point of 155 to 156 °C.
The same measure for `COC(=O)c1nc(NC(C)=O)sc1-c1ccc(SC)cc1`: 253 to 254 °C; for `CCN(CC)c1ccc(C2OC(=O)c3cc(N(C)C)ccc32)cc1` (stereo not given): 165 to 166 °C; for `Oc1ccc2c(-c3ccc(F)cc3F)noc2c1Cl`: 186 to 190 °C.
The value for `CC(=O)c1ccc(COC(=O)N2CCN(CC3(C)Cn4cc([N+](=O)[O-])nc4O3)CC2)cc1` (stereo not given) was 101 to 102 °C; that for `CC(=O)Nc1ccc(S(=O)(=O)Cc2cccc(OC(C)=O)c2)c2ccc(C#N)nc12` was 229 to 231 °C.
In the case of `CCCCCOc1cc(C=Cc2nc3c(s2)NCCCC3)ccc1OC`, the melting point is 124 to 125 °C.
The same measure for `CCN1N=C(c2ccc(F)cc2)c2cc(F)ccc2CS1(=O)=O`: 148 to 151 °C.
With `CCc1cc(Nc2ccc([N+](=O)[O-])cc2)n2nccc2n1`, the melting point lay in the range of 158 to 160 °C.
With `CCN1C(=O)C(C)(C)C(=O)N(C)c2cc(CN(CCn3c(=O)ccc4ccccc43)Cc3ccc(C)nc3C)ccc21`, the melting point was 159 to 160 °C.
`Nc1nc(Nc2cccc(Br)c2)c2c(n1)[nH]c1ccccc12` returned a melting point of 234 °C.
The same measure for `CC(=O)Nc1cc(N)ccc1OCCCN`: 102 to 106 °C.
The same measure for `Cn1cc([N+](=O)[O-])cc1CO`: 89 to 90 °C; for `OCc1conc1-c1ccc(C(F)(F)F)cc1`: 70 to 71 °C; for `Cc1cc(-n2cnnc2)cc2ccc(=O)[nH]c12`: 369 to 371 °C.
`COc1ccc(Cl)cc1-c1cc(Cl)cc2c1OC(CN)C2` (stereo not given): the melting point lay in the range of 174 to 176 °C.
In turn, `COC(=O)c1ccc(C(=O)C2C(=O)N(C(N)=O)c3ccc(Cl)cc32)s1` (stereo not given) had a melting point of 219 to 221 °C.
The same measure for `Oc1ccc(C(=C(c2ccccc2)C(F)(F)F)c2ccc(OCCN3CCOCC3)cc2)cc1`: 154 to 157 °C; for `COc1ccc2c(c1)C(=O)N(CCCNCCCN1C(=O)c3cc(OC)ccc3C(C)(C)C1=O)C(=O)C2(C)C`: 151 to 152 °C.
The value for `O=C(O)Cc1cccc(NC(=O)NC2C(=O)N(CC(=O)N3CCCC3)c3ccccc3N(CC(=O)N3CCCC3)C2=O)c1` was 228 to 230 °C; that for `Cc1ccc(C(=O)Nc2c(NC(=O)CN(C)CC3OCCO3)ccc3c2C(=O)c2ccccc2C3=O)cc1` was 156 to 157 °C.
The same measure for `CC1(C)CCOc2c(C(O)C#Cc3ccc(C(=O)O)c(O)c3)cccc21` (stereo not given): 225 to 227 °C; for `CC1Cc2cc(S(N)(=O)=O)cc(C(=O)NCC3CCCN3C)c2O1` (stereo not given): 187 to 189 °C; for `Cc1ccc(C(=O)Nc2ccccc2O)c(F)c1`: 195 to 197 °C.
Molecule `Cc1nc2c(-c3ccc(N4CCN(C)CC4)cc3)cnn2c(N)c1-c1ccc(F)cc1` displayed a melting point of 289 to 291 °C.
As to `O=C(NCCN1CCCC1)c1ccc(-c2ccc3nnn(Cc4ccc5ncccc5c4)c3n2)cc1F`, the melting point lay within 183 to 186 °C.
Molecule `CCCC(=O)c1cnn(C)c1S(N)(=O)=O` returned a melting point of 97 to 99 °C.
Molecule `Cc1ccc(S(=O)(=O)C[C@H]2CN3C(=O)C[C@@H]3O2)cc1` (racemic) came in with a melting point of 120 to 121 °C.
`Cc1nn(-c2c(Cl)cc(C(F)(F)F)cc2Cl)c(C)c1-c1nc(C#N)c(C#N)[nH]1`: the melting point was 80 to 83 °C.
The value for `C[C@H]1N(C(=O)c2ccc(C(F)(F)F)cc2F)CC(=O)O[C@@]1(Cn1cncn1)c1ccc(F)cc1F` (relative stereo) was 191 to 192 °C; that for `CC(CO)C(O)(Cn1cncn1)c1ccc(Cl)cc1Cl` (single isomer, unassigned; (+)) was 110 to 111 °C; that for `O=C1CC2CCCC(CC(=O)OCc3ccccc3)C2N1` (stereo not given) was 89 to 90 °C.
The value for `COc1ccc(C(=O)c2c(N)sc3c2CCN(C(=O)c2ccc(Cl)cc2)C3)cc1OC` was 138 to 140 °C.

By melting point is commonly meant the temperature of the solid-liquid transition.
